Here are results for twelve compounds from ChEMBL document CHEMBL1201862, “PubChem BioAssay data set” (2004).

Test systems include SW-620; UACC-257; ACHN; OVCAR-8; RPMI-8226; NCI-H522; KM12; HOP-62; LOX IMVI; U-251; CCRF-CEM; A549; RXF 393; HCT-15; OVCAR-4; SK-MEL-2; NCI-H23; COLO 205; SR.
Holding throughout (experiment): NCI tumour cell line growth inhibition, 48 h

Molecules are shown by their SMILES.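 Values below derive from 48-hour exposures of cells grown in 96-well plates, with endpoints linearly interpolated between the two concentrations bracketing the appropriate inhibition level. GI50 = concentration required for 50% inhibition of growth.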 The source made the active and inactive calls. Rule as the data show it: active = GI50 up to about 1.1 µM and inactive = higher. Where only a bound is given, the exact number is not on record here.

As for `COc1ccc2nc(-c3ccc(O)cc3)cc(O)c2c1`, the GI50 in the assay with SW-620 is 1.07 µM (active); in the assay with UACC-257, 1.87 µM (inactive); in the assay on ACHN, 3.82 µM (inactive); with OVCAR-8 it was 2.28 µM (inactive); in the assay with RPMI-8226, 1.65 µM (inactive); in the assay on NCI-H522, 0.579 µM (active). Moreover, the GI50 is 1.03 µM (active) in the assay with KM12; 1.42 µM (inactive) with HOP-62; 1.58 µM (inactive) in the assay on LOX IMVI; 0.718 µM (active) with U-251; 1.09 µM (active) in the assay with CCRF-CEM; 3.7 µM (inactive) in the assay on A549. The GI50 in the assay on RXF 393 is 0.137 µM (active); with HCT-15, 1.36 µM; with OVCAR-4 it was 5.12 µM (inactive); with SK-MEL-2 it was 0.679 µM (active); in the assay with NCI-H23, 1.16 µM (inactive); in the assay on COLO 205, 1.28 µM (inactive).
With `COc1cc(OC)c2ssc3c(OC)cc(OC)c4ssc1c2-c43`, the GI50 in the assay on SW-620, with UACC-257, in the assay with ACHN, in the assay on OVCAR-8, with NCI-H522 and with KM12 was > 100 µM (inactive) throughout. Besides, the GI50 in the assay with HOP-62, with LOX IMVI, in the assay on U-251, in the assay on CCRF-CEM, in the assay with A549 and in the assay on RXF 393 was > 100 µM (inactive) in each case. Besides, the GI50 in the assay on HCT-15 is above 100 µM; in the assay with OVCAR-4, > 100 µM (inactive); in the assay on SK-MEL-2 it was > 100 µM (inactive); with NCI-H23, > 100 µM (inactive); with COLO 205, > 100 µM (inactive).
For `O=C(Nc1ccc(Cl)cc1Cl)C1C(=O)N(c2ccc(Cl)cc2Cl)C(=O)/C1=N\Nc1ccc([N+](=O)[O-])cc1[N+](=O)[O-]` (stereo not drawn), the GI50 in the assay on SW-620 is > 100 µM (inactive); in the assay on UACC-257, 29.4 µM (inactive); with ACHN, 74.5 µM (inactive); in the assay on OVCAR-8, 60.8 µM (inactive); with RPMI-8226 it was 22.7 µM (inactive); with NCI-H522, 21.5 µM (inactive). For the same compound, the GI50 with KM12 is 34.5 µM (inactive); in the assay on HOP-62 it was 45.8 µM (inactive); in the assay with U-251, 48.8 µM (inactive); with CCRF-CEM, 23.1 µM (inactive); in the assay on A549 it was > 100 µM (inactive); in the assay on HCT-15 it was 9.82 µM. Besides, the GI50 was 43.5 µM (inactive) in the assay with OVCAR-4, 42.9 µM (inactive) in the assay on SK-MEL-2, 23.9 µM (inactive) in the assay on NCI-H23 and 52.5 µM (inactive) in the assay on COLO 205.
Regarding `O=C(Nc1ccc(Cl)cc1Cl)C1C(=O)C(=O)N(c2ccc(Cl)cc2Cl)C1=O` (stereo not drawn), the GI50 in the assay with SW-620, with UACC-257, with ACHN, in the assay with OVCAR-8, in the assay on NCI-H522 and in the assay on KM12 was > 100 µM (inactive) in each case. For the same compound, the GI50 was > 100 µM (inactive) in the assay with HOP-62; > 100 µM (inactive) in the assay on LOX IMVI; > 100 µM (inactive) with U-251; > 100 µM (inactive) in the assay on A549; 37.8 µM (inactive) in the assay on RXF 393; above 100 µM with HCT-15. Also, the GI50 in the assay on OVCAR-4 and with NCI-H23 was > 100 µM (inactive) each time.
On to `CCOC(=O)C1=C(C)C2C3C(=O)OC(=O)C3C1(C)C1C(=O)OC(=O)C21` (stereo not drawn), for which the GI50 in the assay on SW-620, with UACC-257, in the assay with ACHN, in the assay on OVCAR-8, in the assay with RPMI-8226 and in the assay on KM12 was > 100 µM (inactive) in each case. Also, the GI50 in the assay with HOP-62, with LOX IMVI, with U-251, in the assay with CCRF-CEM, in the assay with A549 and with RXF 393 was > 100 µM (inactive) each time. Moreover, the GI50 was above 100 µM with HCT-15; > 100 µM (inactive) with OVCAR-4; > 100 µM (inactive) in the assay with SK-MEL-2; > 100 µM (inactive) with NCI-H23; > 100 µM (inactive) with COLO 205.
With `O=C1NC(=O)C2C(=O)NC(=O)C1C2Cc1ccco1` (stereo not drawn), the GI50 with SW-620, with UACC-257, in the assay on ACHN, with OVCAR-8, with RPMI-8226 and with NCI-H522 was > 100 µM (inactive) each time. Besides, the GI50 is > 100 µM (inactive) with KM12; > 100 µM (inactive) in the assay on LOX IMVI; > 100 µM (inactive) in the assay on CCRF-CEM; > 100 µM (inactive) in the assay with A549; > 100 µM (inactive) with RXF 393; above 100 µM with HCT-15. The GI50 in the assay with OVCAR-4, in the assay on SK-MEL-2, in the assay with NCI-H23 and with COLO 205 was > 100 µM (inactive) throughout.
Turning to `CC(=O)N/C(=C\c1ccc(/C=C(\NC(C)=O)c2nc3cc(Cl)ccc3[nH]2)cc1)c1nc2ccccc2[nH]1`, the GI50 with SW-620, in the assay with ACHN, with OVCAR-8, with RPMI-8226, in the assay on NCI-H522 and in the assay with KM12 was > 100 µM (inactive) throughout. The GI50 with HOP-62 is > 100 µM (inactive); in the assay with U-251 it was > 100 µM (inactive); with CCRF-CEM, > 100 µM (inactive); in the assay on A549, > 100 µM (inactive); with HCT-15 it was above 100 µM; in the assay on SR, > 100 µM (inactive). Also, the GI50 with SK-MEL-2, in the assay on NCI-H23 and with COLO 205 was > 100 µM (inactive) each time.
In the case of `OC1=CN=C(C2CC2)Oc2ccccc21`, the GI50 with SW-620, in the assay on UACC-257, with ACHN, in the assay on OVCAR-8, in the assay on RPMI-8226 and with KM12 was > 100 µM (inactive) each time. The GI50 in the assay on HOP-62, in the assay on LOX IMVI, with U-251, in the assay with CCRF-CEM, in the assay on A549 and in the assay with RXF 393 was > 100 µM (inactive) throughout. In addition, the GI50 was above 100 µM in the assay on HCT-15; 85.3 µM (inactive) with OVCAR-4; > 100 µM (inactive) in the assay with SK-MEL-2; > 100 µM (inactive) in the assay with NCI-H23; > 100 µM (inactive) in the assay on COLO 205.
With `Cc1ccc(NC(=O)CCc2nnc(S)[nH]2)cc1`, the GI50 with SW-620, in the assay with UACC-257, in the assay with ACHN, in the assay on OVCAR-8, in the assay on RPMI-8226 and in the assay with NCI-H522 was > 100 µM (inactive) throughout. In addition, the GI50 with KM12 is > 100 µM (inactive); in the assay on HOP-62 it was > 100 µM (inactive); in the assay with U-251 it was > 100 µM (inactive); in the assay with CCRF-CEM, > 100 µM (inactive); in the assay with A549, > 100 µM (inactive); in the assay with HCT-15, 76 µM. Further, the GI50 with OVCAR-4, in the assay on SR, in the assay with SK-MEL-2, in the assay on NCI-H23 and in the assay on COLO 205 was > 100 µM (inactive) in each case.
For `Cc1cc(O)c(C=O)c(C)c1CCC1(C)C=Cc2cc(O)ccc2O1` (stereo not drawn), the GI50 in the assay on SW-620 is 20.9 µM (inactive); with UACC-257, 18.7 µM (inactive); in the assay on ACHN it was 15.7 µM (inactive); in the assay with OVCAR-8, 17.1 µM (inactive); in the assay on RPMI-8226 it was 20.9 µM (inactive); in the assay on NCI-H522, 14.8 µM (inactive). The GI50 in the assay on KM12 is 31.3 µM (inactive); in the assay with HOP-62, 20 µM (inactive); in the assay on LOX IMVI it was 19.6 µM (inactive); in the assay on U-251 it was 21.4 µM (inactive); in the assay on CCRF-CEM, 17.1 µM (inactive); in the assay on A549, 35.9 µM (inactive). In addition, the GI50 is 22.9 µM with HCT-15; 21.9 µM (inactive) in the assay with OVCAR-4; > 100 µM (inactive) with SR; 24.1 µM (inactive) in the assay on SK-MEL-2; 16.7 µM (inactive) with NCI-H23; 15.6 µM (inactive) with COLO 205.
In the case of `N#C/C(=C1\SC(/N=N/c2ccccc2)C(=O)N1c1ccccc1)c1nc2ccccc2[nH]1` (stereo not drawn), the GI50 was > 100 µM (inactive) in the assay with SW-620; 78.2 µM (inactive) with UACC-257; > 100 µM (inactive) with ACHN; > 100 µM (inactive) in the assay on OVCAR-8; > 100 µM (inactive) with NCI-H522; 23.4 µM (inactive) with HOP-62. The GI50 is > 100 µM (inactive) in the assay with LOX IMVI; 54.2 µM (inactive) in the assay with U-251; 42.8 µM (inactive) with CCRF-CEM; > 100 µM (inactive) with A549; 28.6 µM (inactive) in the assay on RXF 393; above 100 µM in the assay on HCT-15. Moreover, the GI50 with OVCAR-4 is 66.7 µM (inactive); in the assay on SK-MEL-2 it was 68.5 µM (inactive); in the assay on NCI-H23, > 100 µM (inactive); with COLO 205 it was > 100 µM (inactive).
On to `COC(=O)C1C2C=CC(C2)N1[C@@H](C)c1ccccc1` (stereo partly drawn), for which the GI50 in the assay with SW-620, in the assay with UACC-257, with ACHN, in the assay with OVCAR-8, in the assay with RPMI-8226 and in the assay with NCI-H522 was > 100 µM (inactive) throughout. The GI50 with KM12, in the assay on HOP-62, in the assay on LOX IMVI, in the assay on U-251, in the assay with CCRF-CEM and with A549 was > 100 µM (inactive) each time. Also, the GI50 is above 100 µM in the assay on HCT-15; > 100 µM (inactive) with SR; > 100 µM (inactive) in the assay on SK-MEL-2; > 100 µM (inactive) in the assay with NCI-H23; > 100 µM (inactive) with COLO 205.
